Measurements from paper PMC4433804 (Nature chemical biology, 2015).

Target: RPE65 (bovine RPE microsomes as the enzyme source) (Bos taurus, UniProt Q28175)
Assay: in vitro retinoid isomerase activity assay
Assay type: biochemical

UniProt Q28175, sequence (Q28175 whole entry): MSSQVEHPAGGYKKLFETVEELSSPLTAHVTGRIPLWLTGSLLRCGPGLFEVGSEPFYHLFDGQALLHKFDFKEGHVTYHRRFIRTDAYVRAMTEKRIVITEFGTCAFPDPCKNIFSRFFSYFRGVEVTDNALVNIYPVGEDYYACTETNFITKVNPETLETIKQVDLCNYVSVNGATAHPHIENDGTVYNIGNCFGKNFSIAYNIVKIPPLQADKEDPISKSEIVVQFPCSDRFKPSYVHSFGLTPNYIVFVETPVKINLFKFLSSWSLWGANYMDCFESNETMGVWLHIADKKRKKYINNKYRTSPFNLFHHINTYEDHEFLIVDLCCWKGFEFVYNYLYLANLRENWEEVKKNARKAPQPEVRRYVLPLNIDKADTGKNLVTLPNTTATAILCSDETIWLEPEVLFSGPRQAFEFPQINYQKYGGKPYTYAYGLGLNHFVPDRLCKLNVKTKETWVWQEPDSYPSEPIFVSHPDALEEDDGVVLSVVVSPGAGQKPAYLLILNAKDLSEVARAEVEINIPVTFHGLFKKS

CC1=C(COc2cccc([C@H](O)CCN)c2)C(C)(C)CCC1 [MB-001, (R)-3-amino-1-(3-((2,6,6-trimethylcyclohex-1-en-1-yl)methoxy)phenyl)propan-1-ol]
IC50: 396 ± 58 nM
